Patent US7371560B2, “Photosynthetic hydrogen production” (priority 2003, dated 2008)

Legend:
[1] = system: Chlamydomonas reinhardtii Stm6 cultures; experiment: H2 production ± CCCP, Clark type hydrogen electrode, Stm6 cultures; format: cell-based
Procedure: (§1) H2 concentrations were measured in the liquid phase and the gaseous head space above, both for WT and Stm6 cultures (cell density of OD750 nm=0.8). Dissolved H2 concentrations were measured in 1 liter dark-adapted cell cultures in TAP medium replete with, or depleted of, sulfur using a Clark type hydrogen electrode (Unisense PA2000, Denmark) upon white light illumination. H2 concentrations in the presence and absence of 5 μM carbonylcyanide m-chlorophenylhydrazone (CCCP) were measured using dark adapted cultures (1 h) before and after illumination (white light, 300 μmol m^−2·s^−1) The H2 concentration in the gaseous head space was measured using a mass spectrometer (Delta Finnigan MAT). Cell cultures were dark-adapted for 30 min in a weak vacuum to deplete the medium and headspace of O2 and H2, prior to illumination with continuous or pulsed (3.3 Hz frequency, 5 μs flashes; light intensity range of 15-3000 μmol·m^−2·s^−1) white light.

[2] = system: Chlamydomonas reinhardtii WT cultures; experiment: H2 production ± CCCP, Clark type hydrogen electrode, WT cultures; format: cell-based; details: CCCP added to WT culture
Procedure: as §1

**Q.** For N#CC(C#N)=NNc1cccc(Cl)c1 [CCCP, carbonylcyanide m-chlorophenylhydrazone], which “period of increased H2 production with CCCP” value ([1]; 5 μM CCCP, Stm6 culture) is on record?
**A.** at least 30 min

**Q.** What about the “H2 production rate with CCCP, higher than in the WT” value ([1]; 5 μM CCCP, dark adapted cultures (1 h), white light 300 μmol m^−2·s^−1, relative to WT) of the same molecule?
**A.** ~1500%

**Q.** And the “H2 production rate in the presence of CCCP, times higher than the WT” value ([1]; Stm6 in the presence of CCCP, relative to WT)?
**A.** 15 ×

**Q.** And the “effect of CCCP on H2 production” value [2]?
**A.** hardly any effect
